Some results are limits rather than exact numbers.

The record followed here is ChEMBL document CHEMBL5543146 (J Med Chem, 2024).

The target in series [1] is T1, Fibroblast growth factor receptor 4 (Homo sapiens, UniProt P22455). Kind of series: Inhibition of N-terminal GST tagged cytoplasmic domain human FGFR4 (460 to 802 residues) expressed in Escherichia coli BL21 (DE3) using CSox as substrate incubated for 240 mins in presence of ATP by hotspot assay.
Target sequence in this assay (P22455 whole entry, the tested form may be a part): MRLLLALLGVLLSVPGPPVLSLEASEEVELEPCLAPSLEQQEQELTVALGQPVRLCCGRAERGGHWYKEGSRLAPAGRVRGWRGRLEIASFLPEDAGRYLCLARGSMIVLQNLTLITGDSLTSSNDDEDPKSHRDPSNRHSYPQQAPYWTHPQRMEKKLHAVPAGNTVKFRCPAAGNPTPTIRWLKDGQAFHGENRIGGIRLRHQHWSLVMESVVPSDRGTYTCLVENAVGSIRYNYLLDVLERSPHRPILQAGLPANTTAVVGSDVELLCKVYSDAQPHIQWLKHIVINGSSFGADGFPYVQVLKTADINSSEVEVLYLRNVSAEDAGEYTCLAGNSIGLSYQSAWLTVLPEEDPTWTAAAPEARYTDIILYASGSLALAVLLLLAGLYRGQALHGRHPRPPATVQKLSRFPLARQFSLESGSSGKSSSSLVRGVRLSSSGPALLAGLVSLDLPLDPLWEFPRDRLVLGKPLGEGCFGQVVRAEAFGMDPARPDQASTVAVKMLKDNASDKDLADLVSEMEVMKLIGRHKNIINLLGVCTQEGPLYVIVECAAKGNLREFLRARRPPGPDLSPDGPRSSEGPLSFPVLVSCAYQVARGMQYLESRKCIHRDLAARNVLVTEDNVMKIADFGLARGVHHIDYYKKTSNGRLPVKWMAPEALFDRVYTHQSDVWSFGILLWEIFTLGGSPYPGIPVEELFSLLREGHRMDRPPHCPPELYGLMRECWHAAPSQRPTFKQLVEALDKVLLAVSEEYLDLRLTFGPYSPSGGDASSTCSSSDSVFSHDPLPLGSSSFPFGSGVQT
Series [2] deals with T1, Fibroblast growth factor receptor 4. Kind of series: Inhibition of N-terminal GST tagged cytoplasmic domain human FGFR4 (460 to 802 residues) expressed in Escherichia coli BL21 (DE3) using CSox as substrate assessed as residual activity at 5 uM incubated for 240 mins in presence of ATP by hotspot assay relative to control.
Target sequence in this assay (P22455 22-802 limits assumed): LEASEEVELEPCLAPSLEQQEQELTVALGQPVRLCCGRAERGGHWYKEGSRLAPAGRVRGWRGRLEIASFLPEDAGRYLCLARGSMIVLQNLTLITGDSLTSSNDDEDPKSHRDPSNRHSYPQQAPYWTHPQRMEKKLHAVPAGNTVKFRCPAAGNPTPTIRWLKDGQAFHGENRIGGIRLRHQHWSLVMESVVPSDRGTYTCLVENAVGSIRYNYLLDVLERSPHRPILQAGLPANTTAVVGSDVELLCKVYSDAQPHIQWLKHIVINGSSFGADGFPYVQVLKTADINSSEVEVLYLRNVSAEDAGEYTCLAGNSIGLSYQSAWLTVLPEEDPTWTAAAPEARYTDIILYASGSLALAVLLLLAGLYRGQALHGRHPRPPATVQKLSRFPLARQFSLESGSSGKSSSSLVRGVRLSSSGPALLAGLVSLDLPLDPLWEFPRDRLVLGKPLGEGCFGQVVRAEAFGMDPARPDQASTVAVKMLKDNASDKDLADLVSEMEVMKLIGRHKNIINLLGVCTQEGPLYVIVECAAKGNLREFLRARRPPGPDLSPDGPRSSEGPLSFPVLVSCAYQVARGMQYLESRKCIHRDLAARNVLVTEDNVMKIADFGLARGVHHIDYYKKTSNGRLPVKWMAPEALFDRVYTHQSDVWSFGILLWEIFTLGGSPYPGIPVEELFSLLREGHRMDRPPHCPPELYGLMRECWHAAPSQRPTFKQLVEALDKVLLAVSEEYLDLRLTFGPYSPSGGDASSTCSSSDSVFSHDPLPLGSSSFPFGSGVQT
The target of series [3] is T2, Fibroblast growth factor receptor 1 (Homo sapiens, UniProt P11362). Kind of series: Inhibition of full length nanoluc-fused FGFR1 transfected in HEK293T cells assessed as target engagement incubated for 3 hrs in presence of K10 tracer by Nano BRET assay. The series is classed as cell-based. Background: Bioluminescence resonance energy transfer reports proximity on the nanometre scale.

The target in series [4] is T3, Fibroblast growth factor receptor 3 (Homo sapiens, UniProt P22607). Kind of series: Binding affinity to FGFR3 (unknown origin) assessed as change in melting temperature by differential scanning fluorimetry analysis. Background: Differential scanning fluorimetry follows unfolding on heating by fluorescence.
Series [5] in a line: Metabolic stability in human liver microsomes assessed as compound remaining measured after 2 hrs in presence of NADPH regenerating system measured upto 120 mins by LC-MS analysis. The class given is ADME, Microsome. The following applies: read-out: Stability. For orientation: Liver microsomes are a subcellular fraction often used to study metabolism.
In series [6] the target is T4, Fibroblast growth factor receptor 2 (Homo sapiens, UniProt P21802). Kind of series: Inhibition of full length nanoluc-fused FGFR2 transfected in HEK293T cells assessed as target engagement incubated for 3 hrs in presence of K10 tracer by Nano BRET assay. The series is classed as cell-based.
Series [7] addresses T1, Fibroblast growth factor receptor 4. Kind of series: Inhibition of full length nanoluc-fused FGFR4 transfected in HEK293T cells assessed as target engagement incubated for 3 hrs in presence of K10 tracer by Nano BRET assay. The class given is cell-based.
Target sequence in this assay (P22455 whole entry, the tested form may be a part): as the sequence (P22455 whole entry, the tested form may be a part) above
The test system of a further series is Hep 3B2. Kind of series: cells. The following applies: Homo sapiens, Hep3B, 96 h.
Series [8] has as its target T3, Fibroblast growth factor receptor 3. Kind of series: Inhibition of full length nanoluc-fused FGFR3 transfected in HEK293T cells assessed as target engagement incubated for 3 hrs in presence of K10 tracer by Nano BRET assay. The series is classed as cell-based.
Target sequence in this assay (P22607 whole entry): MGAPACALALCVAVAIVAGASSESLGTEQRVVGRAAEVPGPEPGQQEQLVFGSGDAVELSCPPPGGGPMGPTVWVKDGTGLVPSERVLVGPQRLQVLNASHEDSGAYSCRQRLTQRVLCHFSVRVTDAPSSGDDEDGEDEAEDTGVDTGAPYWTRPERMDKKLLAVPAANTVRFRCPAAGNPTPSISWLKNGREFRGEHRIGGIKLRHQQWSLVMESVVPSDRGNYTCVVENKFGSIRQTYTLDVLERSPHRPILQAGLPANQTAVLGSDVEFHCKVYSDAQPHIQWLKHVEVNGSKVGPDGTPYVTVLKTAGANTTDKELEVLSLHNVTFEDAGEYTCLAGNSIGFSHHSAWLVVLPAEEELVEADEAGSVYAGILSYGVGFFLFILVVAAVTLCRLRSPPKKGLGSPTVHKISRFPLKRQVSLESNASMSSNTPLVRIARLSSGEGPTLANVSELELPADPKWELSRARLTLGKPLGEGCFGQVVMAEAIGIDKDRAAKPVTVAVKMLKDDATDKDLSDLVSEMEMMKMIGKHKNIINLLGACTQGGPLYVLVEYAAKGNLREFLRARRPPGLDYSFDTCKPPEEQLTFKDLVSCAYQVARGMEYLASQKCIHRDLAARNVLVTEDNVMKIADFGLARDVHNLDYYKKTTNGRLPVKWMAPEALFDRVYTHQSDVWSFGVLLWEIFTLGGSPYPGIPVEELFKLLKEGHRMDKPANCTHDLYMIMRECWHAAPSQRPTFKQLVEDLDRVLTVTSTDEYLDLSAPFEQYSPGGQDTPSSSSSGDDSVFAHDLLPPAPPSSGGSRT
Series [9] concerns the target Ribosomal protein S6 kinase beta-2 (Homo sapiens, UniProt Q9UBS0). Kind of series: Inhibition of human wild type S6K2 using RBER-CHKtide as substrate in presence of ATP by hotspot assay.
For series [10], the target named is T5, Dual specificity protein kinase TTK (Homo sapiens, UniProt P33981).
T5 sequence (P33981 whole entry): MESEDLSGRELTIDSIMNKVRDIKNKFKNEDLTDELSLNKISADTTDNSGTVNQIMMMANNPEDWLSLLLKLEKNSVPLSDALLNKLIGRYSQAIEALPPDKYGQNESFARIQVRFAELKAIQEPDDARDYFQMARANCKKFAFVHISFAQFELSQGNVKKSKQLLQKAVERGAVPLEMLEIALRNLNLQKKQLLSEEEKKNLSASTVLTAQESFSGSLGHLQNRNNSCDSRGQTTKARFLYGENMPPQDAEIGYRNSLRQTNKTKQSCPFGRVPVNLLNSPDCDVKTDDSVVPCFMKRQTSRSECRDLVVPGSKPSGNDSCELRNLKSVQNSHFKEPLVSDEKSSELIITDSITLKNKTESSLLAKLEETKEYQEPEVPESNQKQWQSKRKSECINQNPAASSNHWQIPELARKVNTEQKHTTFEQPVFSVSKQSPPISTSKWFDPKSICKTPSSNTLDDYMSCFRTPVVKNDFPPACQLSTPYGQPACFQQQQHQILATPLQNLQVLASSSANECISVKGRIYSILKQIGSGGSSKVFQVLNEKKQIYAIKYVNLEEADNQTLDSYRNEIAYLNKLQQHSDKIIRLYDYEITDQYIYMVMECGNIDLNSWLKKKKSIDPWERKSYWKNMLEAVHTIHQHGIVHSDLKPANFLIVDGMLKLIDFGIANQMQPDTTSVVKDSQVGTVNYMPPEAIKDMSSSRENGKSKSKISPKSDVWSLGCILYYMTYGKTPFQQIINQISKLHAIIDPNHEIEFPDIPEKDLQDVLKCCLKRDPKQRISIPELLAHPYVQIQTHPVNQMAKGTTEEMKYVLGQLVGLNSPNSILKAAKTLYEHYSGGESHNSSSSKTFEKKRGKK
Kind of series: Inhibition of human wild type TTK using RBER-CHKtide as substrate in presence of ATP by hotspot assay.

Series [11] concerns the target T4, Fibroblast growth factor receptor 2. Kind of series: Inhibition of human FGFR2 in presence of ATP by hotspot assay.
The target of series [12] is T1, Fibroblast growth factor receptor 4. Kind of series: Inhibition of N-terminal GST tagged cytoplasmic domain human FGFR4 (460 to 802 residues) expressed in Escherichia coli BL21 (DE3) by phosphosen-csox based assay.
Target sequence in this assay (P22455 whole entry, the tested form may be a part): as the sequence (P22455 whole entry, the tested form may be a part) above
Series [13] has the same target. Kind of series: Binding affinity to N-terminal GST tagged cytoplasmic domain human FGFR4 (460 to 802 residues) expressed in Escherichia coli BL21 (DE3) assessed as inhibition constant using sox as substrate incubated for 30 mins followed by enzyme addition and measured after 120 mins in presence of ATP by PhosphoSens CSox-based continuous assay.
Target sequence in this assay (P22455 whole entry, the tested form may be a part): as above
Series [14] deals with T3, Fibroblast growth factor receptor 3. Kind of series: Inhibition of human wild type FGFR3 using polyEY as substrate in presence of ATP by hotspot assay.
Target sequence in this assay (P22607 whole entry): as the sequence (P22607 whole entry) above
In series [15] the target is T2, Fibroblast growth factor receptor 1. Kind of series: Inhibition of human FGFR1 using poly[Glu:Tyr] (4:1) as substrate in presence of ATP by hotspot assay.
Series [16] concerns the target MAP kinase-activated protein kinase 2 (Homo sapiens, UniProt P49137). Kind of series: Inhibition of human MAPKAPK2 using KKLNRTLSVA as substrate in presence of ATP by hotspot assay.
In series [17] the target is MAP kinase-activated protein kinase 3 (Homo sapiens, UniProt Q16644). Kind of series: Inhibition of human MAPKAPK3 using KKLNRTLSVA as substrate in presence of ATP by hotspot assay.
MAP kinase-activated protein kinase 3, sequence (Q16644 whole entry): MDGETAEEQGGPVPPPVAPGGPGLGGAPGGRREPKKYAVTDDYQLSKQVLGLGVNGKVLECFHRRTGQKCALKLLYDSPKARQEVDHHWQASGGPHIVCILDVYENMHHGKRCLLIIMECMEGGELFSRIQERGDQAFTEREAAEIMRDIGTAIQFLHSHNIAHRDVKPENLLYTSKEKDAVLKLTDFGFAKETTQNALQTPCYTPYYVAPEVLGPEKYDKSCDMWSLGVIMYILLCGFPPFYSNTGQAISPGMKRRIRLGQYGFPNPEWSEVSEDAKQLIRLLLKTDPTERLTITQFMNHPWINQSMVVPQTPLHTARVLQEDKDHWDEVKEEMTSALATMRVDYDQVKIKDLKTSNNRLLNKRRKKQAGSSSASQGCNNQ

T4 sequence (P21802 whole entry, the tested form may be a part): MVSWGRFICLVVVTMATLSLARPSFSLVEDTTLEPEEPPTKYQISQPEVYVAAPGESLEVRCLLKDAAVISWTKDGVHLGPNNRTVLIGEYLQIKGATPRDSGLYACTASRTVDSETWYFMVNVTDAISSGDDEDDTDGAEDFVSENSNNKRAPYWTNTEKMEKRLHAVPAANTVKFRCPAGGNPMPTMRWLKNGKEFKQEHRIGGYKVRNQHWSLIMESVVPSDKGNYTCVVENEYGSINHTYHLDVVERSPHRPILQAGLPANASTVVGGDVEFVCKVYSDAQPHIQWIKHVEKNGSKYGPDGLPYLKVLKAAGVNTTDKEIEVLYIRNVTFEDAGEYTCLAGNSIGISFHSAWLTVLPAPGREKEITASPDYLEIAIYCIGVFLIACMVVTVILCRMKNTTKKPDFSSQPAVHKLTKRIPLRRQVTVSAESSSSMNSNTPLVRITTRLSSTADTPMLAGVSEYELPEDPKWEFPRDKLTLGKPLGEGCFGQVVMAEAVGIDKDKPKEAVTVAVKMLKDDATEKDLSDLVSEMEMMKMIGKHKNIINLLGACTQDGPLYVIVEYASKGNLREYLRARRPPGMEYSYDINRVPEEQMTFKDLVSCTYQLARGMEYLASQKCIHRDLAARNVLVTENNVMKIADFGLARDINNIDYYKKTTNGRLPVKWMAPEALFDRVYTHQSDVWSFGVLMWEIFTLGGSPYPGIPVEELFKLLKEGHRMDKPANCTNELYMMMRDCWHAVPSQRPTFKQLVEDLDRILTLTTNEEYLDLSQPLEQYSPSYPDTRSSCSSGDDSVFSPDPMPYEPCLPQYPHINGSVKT
T2 sequence (P11362 whole entry, the tested form may be a part): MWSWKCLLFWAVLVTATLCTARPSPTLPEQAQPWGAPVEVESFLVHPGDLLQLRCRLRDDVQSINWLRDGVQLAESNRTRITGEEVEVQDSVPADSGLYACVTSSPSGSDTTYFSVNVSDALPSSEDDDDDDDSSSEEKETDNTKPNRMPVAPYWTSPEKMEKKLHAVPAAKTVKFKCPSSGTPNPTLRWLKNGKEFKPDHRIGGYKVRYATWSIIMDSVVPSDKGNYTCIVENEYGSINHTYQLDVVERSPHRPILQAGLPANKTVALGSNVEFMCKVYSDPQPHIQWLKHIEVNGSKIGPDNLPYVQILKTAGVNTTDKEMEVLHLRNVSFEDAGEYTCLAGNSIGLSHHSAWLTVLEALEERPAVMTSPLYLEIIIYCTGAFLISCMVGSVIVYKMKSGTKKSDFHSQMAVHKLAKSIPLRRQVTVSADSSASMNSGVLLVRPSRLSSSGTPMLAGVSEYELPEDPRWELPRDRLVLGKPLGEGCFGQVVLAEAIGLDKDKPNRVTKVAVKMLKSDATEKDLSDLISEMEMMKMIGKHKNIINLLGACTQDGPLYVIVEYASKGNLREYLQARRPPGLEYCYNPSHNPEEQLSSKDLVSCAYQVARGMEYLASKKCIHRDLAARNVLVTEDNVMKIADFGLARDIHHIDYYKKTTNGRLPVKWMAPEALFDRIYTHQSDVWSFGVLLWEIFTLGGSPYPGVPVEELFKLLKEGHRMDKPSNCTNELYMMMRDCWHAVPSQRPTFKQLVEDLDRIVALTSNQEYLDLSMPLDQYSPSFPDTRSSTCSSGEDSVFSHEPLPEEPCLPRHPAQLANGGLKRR
Ribosomal protein S6 kinase beta-2, sequence (Q9UBS0 whole entry): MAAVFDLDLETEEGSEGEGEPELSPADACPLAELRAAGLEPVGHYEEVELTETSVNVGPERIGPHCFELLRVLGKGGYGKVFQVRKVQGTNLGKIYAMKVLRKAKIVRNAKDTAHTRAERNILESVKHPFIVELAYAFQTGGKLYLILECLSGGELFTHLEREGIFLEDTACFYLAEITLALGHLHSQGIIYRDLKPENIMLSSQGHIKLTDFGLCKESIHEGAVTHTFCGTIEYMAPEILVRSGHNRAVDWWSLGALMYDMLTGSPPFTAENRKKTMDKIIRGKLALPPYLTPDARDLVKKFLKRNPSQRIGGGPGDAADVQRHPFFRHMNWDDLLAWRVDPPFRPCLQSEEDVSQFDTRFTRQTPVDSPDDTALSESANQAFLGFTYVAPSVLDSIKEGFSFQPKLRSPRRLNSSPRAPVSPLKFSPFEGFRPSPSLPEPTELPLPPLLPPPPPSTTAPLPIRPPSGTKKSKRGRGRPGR
Description for Hep 3B2: Antiproliferative activity against human Hep3B cells measured after 4 days by Celltiter-glo based luminescent assay

As usually defined, the IC50 is the concentration needed to halve the response being measured. On to `COc1cc(OC)cc(-c2ccc3nc(-c4cccc5cnc(Cl)nc45)ncc3c2)c1`, for which the IC50 in [1] was above 5000 nM. For the same compound, in series [2], the Activity was 96.5%.

Regarding `COc1cc(OC)cc(-c2ccc3nc(Sc4ncccc4[N+](=O)[O-])ncc3c2)c1`, the IC50 in series [1] is above 5000 nM. In addition, in [2], the Activity is 97.9%.

`COc1cc(OC)cc(-c2ccc3nc(Nc4ncccc4[N+](=O)[O-])ncc3c2)c1`: in [1], the IC50 was above 5000 nM. In series [2], the Activity came out at 92.1%.

For `COc1cc(OC)cc(-c2ccc3nc(Sc4ccnc(F)n4)ncc3c2)c1`, the IC50 in series [1] was above 5000 nM. In addition, in series [2], the Activity was above 100%.

One may read the EC50 as the concentration needed to bring the measured effect to its halfway point. What is called ΔTm is the shift of the melting midpoint relative to a reference. Consider `COc1cc(OC)c(Cl)c(-c2ccc3nc(Nc4ncccc4[N+](=O)[O-])ncc3c2)c1Cl`, for which the EC50 came out at 867 nM in series [3]; 867 nM in series [6]; 2260 nM in [7]; 1070 nM with Hep 3B2; 1780 nM in [8]. Besides, the ΔTm in series [4] is 4.5 °C. Also, the remaining at 2 h in [5] is above 80%. The IC50 in [1] came to 1700 nM. For the same compound, the Activity in series [2] turned out to be 89.4%.

In the case of `COc1cc(OC)cc(-c2ccc3nc(Sc4nc(Cl)ccc4[N+](=O)[O-])ncc3c2)c1`, the IC50 in series [1] came to 4450 nM.

On to `COc1cc(OC)cc(-c2ccc3ncncc3c2)c1`, for which the IC50 in series [1] is above 5000 nM. For the same compound, in series [2], the Activity was determined as 93.1%.

The term Ki denotes the equilibrium dissociation constant of an inhibitor or competing ligand from its target. For the compound `COc1cc(OC)c(Cl)c(-c2ccc3nc(Nc4nc(Cl)ccc4[N+](=O)[O-])ncc3c2)c1Cl`, the IC50 was 18.2 nM in series [9]; above 5000 nM in [10]; 490 nM in [11]; 1.2 nM in series [12]; below 0.5 nM in [1]; above 5000 nM in series [14]. Also, the EC50 came to 1290 nM in [6], 52 nM in [7] and 1430 nM in [8]. The Ki in series [13] is 5.7 nM.

Consider `COc1cc(OC)cc(-c2ccc3nc(-n4ccc5cnc(Cl)nc54)ncc3c2)c1`, for which the IC50 in series [1] was above 5000 nM.

Consider `COc1cc(OC)cc(-c2ccc3nc(Nc4nc(Cl)ccc4[N+](=O)[O-])ncc3c2)c1`, for which the IC50 in [9] was 4.48 nM; in series [10], above 5000 nM; in series [15], above 5000 nM; in series [16], above 5000 nM; in series [11] it was above 5000 nM; in series [12], 4.5 nM. In addition, the results for the IC50 in [1], in series [14] and in series [17] were below 0.5 nM, above 5000 nM and above 5000 nM, respectively. Besides, the EC50 is above 10000 nM in series [3]; above 10000 nM in [6]; 30 nM in series [7]; 5 nM in the series on Hep 3B2; above 10000 nM in series [8]. Moreover, the Ki in series [13] came out at 37.9 nM.

As to `COc1cc(OC)cc(-c2ccc3nc(Sc4ccnc(Cl)n4)ncc3c2)c1`, the IC50 in [1] is above 5000 nM. Moreover, the Activity in series [2] was 82.6%.

Consider `C=CC(=O)Nc1cccc(C)c1Nc1ncc2cc(-c3c(Cl)c(OC)cc(OC)c3Cl)ccc2n1`, for which the EC50 in series [3] was 4260 nM; in [6] it was 3300 nM; in the series on Hep 3B2, 62 nM; in [8], 2240 nM.

For `COc1cc(OC)c(Cl)c(-c2ccc3ncncc3c2)c1Cl`, the IC50 in series [1] worked out at 2090 nM.

Turning to `COc1cc(OC)cc(-c2ccc3nc(Nc4nc(C)ccc4[N+](=O)[O-])ncc3c2)c1`, the IC50 in series [1] is above 5000 nM. Moreover, the Activity in [2] was 53.6%.

For the compound `COc1cc(OC)cc(-c2ccc3nc(Sc4nc(Cl)ncc4F)ncc3c2)c1`, in series [1], the IC50 was above 5000 nM. Further, in series [2], the Activity amounted to 96.5%.
